Experimental data reported in paper PMC9037210, “Novel 3-(6-methylpyridin-2-yl)coumarin-based chalcones as selective inhibitors of cancer-related carbonic anhydrases IX and XII endowed with anti-proliferative activity” (Journal of Enzyme Inhibition and Medicinal Chemistry, 2022).
pKi: −log10 of the molar value.

Experiments:
hCA I = biological target: T1, hCA I (Homo sapiens, UniProt P00915); test: stopped-flow CO2 hydrase assay, hCA I; format: biochemical; conditions: stopped-flow, incubation time of 6 h, mean of three assays; read-out: KI CA I
T1 construct: made in house
Procedure: (§1) The newly synthesised MPCs (3 and 5a–o) were assessed for their CA inhibition activity employing the stopped-flow CO2 hydrase assay[29] for constitutional hCA (I/II) isoforms and cancer-linked hCA (IX/XII) isoforms.
(§2) The CA inhibition activity for the herein reported MPC derivatives was evaluated against the hCA isoforms I, II, IX, and XII using stopped-flow CO2 hydrase test[7]^,[33–36] (see the Supplementary Material).
(§3) Carbonic anhydrase inhibition assay
(§4) The carbonic anhydrase catalyzed CO2 hydration actions for all coumarin-based […]
(§5) Photophysics stopped-flow. The enzymes are recombinant proteins prepared in our lab. Phenol red (at a concentration of 0.2 mM) has been used as indicator, working at […]
(§6) mM Na2SO4 (for maintaining constant the ionic strength), following the initial rates of the CA-catalyzed CO2 hydration reaction for a period of 10-100 s. The CO2 concentrations ranged from 1.7 to 17 mM for the determination of the kinetic parameters and inhibition constants. For each inhibitor at least six traces of the initial 5-10% of the reaction have been used for determining the initial velocity. The uncatalyzed rates were determined in the same manner and subtracted from the total observed rates. Stock solutions of inhibitor (0.1 mM) were prepared in distilled-deionized water and dilutions up to 0.01 nM were done thereafter with the assay buffer. Inhibitor and enzyme solutions were preincubated together for 6 hrs. at room temperature prior to assay, in order to allow for the formation of the E-I complex. The inhibition constants were obtained by non-linear least-squares methods using PRISM 3 and the Cheng-Prusoff equation, and represent the mean from at least three different

hCA IX = biological target: T2, hCA IX (Homo sapiens, UniProt Q16790); test: stopped-flow CO2 hydrase assay, hCA IX; format: biochemical; conditions: for Selectivity index (SI) (KI off-target CA/KI target CA) Towards hCA IX: ratio of KI for hCA I and II relative to hCA IX; for pKi: stopped-flow, incubation time of 6 h, mean of three assays, read-out: KI CA IX
T2 construct: made in house
Procedure: as §1, §2, §3, §4, §5, §6

CCRF-CEM = test: NCI single (10 µM) dose SRB screening, CCRF-CEM; format: cell-based, human; conditions: 10 µM single dose, Leukaemia
Procedure: (§7) Following NCI protocol, sixteen MPCs were screened for their potential in vitro anticancer effects against human 59 cancer cell panels including prostate, leukaemia melanoma, colon, breast, CNS, renal, NSCLC, and ovarian cancers by National Cancer Institute (USA)[30].
(§8) The antiproliferative activities of MPC 3 and MPCs 5a–o were first evaluated in a 10 µM dose assay, with SRB assay used to determine cell survival and proliferation. […] The results of the cell growth inhibitory activities for MPCs 5g and 5l towards the different treated tumour cell lines were presented as GI% and presented in Table 3.
(§9) The anticancer test was conducted using the methods of the Drug Evaluation Branch, National Cancer Institute, Bethesda, MD, using 59 human tumour cell lines derived from nine human tissues. The GI50, TGI, and LC50 dose-response parameters were calculated for each medication.

RPMI-8226 = test: NCI single (10 µM) dose SRB screening, RPMI-8226; format: cell-based, human; conditions: 10 µM single dose, RPMI-8226, Leukaemia
Procedure: as §7, §8, §9

SR = test: NCI single (10 µM) dose SRB screening, SR; format: cell-based, human; conditions: 10 µM single dose, Leukaemia
Procedure: as §7, §8, §9

EKVX = test: NCI single (10 µM) dose SRB screening, EKVX; format: cell-based, human; conditions: 10 µM single dose, NSC lung cancer
Procedure: as §7, §8, §9

NCI-H23 = test: NCI single (10 µM) dose SRB screening, NCI-H23; format: cell-based, human; conditions: 10 µM single dose, NCI-H23, NSC lung cancer
Procedure: as §7, §8, §9

NCI-H322M = test: NCI single (10 µM) dose SRB screening, NCI-H322M; format: cell-based, human; conditions: 10 µM single dose, NSC lung cancer
Procedure: as §7, §8, §9

NCI-H522 = test: NCI single (10 µM) dose SRB screening, NCI-H522; format: cell-based, human; conditions: 10 µM single dose, NCI-H522, NSC lung cancer
Procedure: as §7, §8, §9

HCT-15 = test: NCI single (10 µM) dose SRB screening, HCT-15; format: cell-based, human; conditions: 10 µM single dose, HCT-15, Colon cancer
Procedure: as §7, §8, §9

KM 12 = test: NCI single (10 µM) dose SRB screening, KM 12; format: cell-based, human; conditions: 10 µM single dose, KM 12, Colon cancer
Procedure: as §7, §8, §9

SF-268 = test: NCI single (10 µM) dose SRB screening, SF-268; format: cell-based, human; conditions: 10 µM single dose, SF-268, CNS cancer
Procedure: as §7, §8, §9

SF-539 = test: NCI single (10 µM) dose SRB screening, SF-539; format: cell-based, human; conditions: 10 µM single dose, SF-539, CNS cancer
Procedure: as §7, §8, §9

LOX IMVI = test: NCI single (10 µM) dose SRB screening, LOX IMVI; format: cell-based, human; conditions: 10 µM single dose, Melanoma
Procedure: as §7, §8, §9

MDA-MB-435 = test: NCI single (10 µM) dose SRB screening, MDA-MB-435; format: cell-based, human; conditions: 10 µM single dose, MDA-MB-435, Melanoma
Procedure: as §7, §8, §9

SK-MEL-2 = test: NCI single (10 µM) dose SRB screening, SK-MEL-2; format: cell-based, human; conditions: 10 µM single dose, SK-MEL-2, Melanoma
Procedure: as §7, §8, §9

UACC-257 = test: NCI single (10 µM) dose SRB screening, UACC-257; format: cell-based, human; conditions: 10 µM single dose, UACC-257, Melanoma
Procedure: as §7, §8, §9

OVCAR-4 = test: NCI single (10 µM) dose SRB screening, OVCAR-4; format: cell-based, human; conditions: 10 µM single dose, OVCAR-4, Ovarian cancer
Procedure: as §7, §8, §9

IGROV1 = test: NCI single (10 µM) dose SRB screening, IGROV1; format: cell-based, human; conditions: 10 µM single dose, IGROV1, Ovarian cancer
Procedure: as §7, §8, §9

SK-OV-3 = test: NCI single (10 µM) dose SRB screening, SK-OV-3; format: cell-based, human; conditions: 10 µM single dose, SK-OV-3, Ovarian cancer
Procedure: as §7, §8, §9

OVCAR-8 = test: NCI single (10 µM) dose SRB screening, OVCAR-8; format: cell-based, human; conditions: 10 µM single dose, OVCAR-8, Ovarian cancer
Procedure: as §7, §8, §9

NCI/ADR-RES = test: NCI single (10 µM) dose SRB screening, NCI/ADR-RES; format: cell-based, human; conditions: 10 µM single dose, Ovarian cancer
Procedure: as §7, §8, §9

786-0 = test: NCI single (10 µM) dose SRB screening, 786-0; format: cell-based, human; conditions: 10 µM single dose, 786-0, Renal cancer
Procedure: as §7, §8, §9

A498 = test: NCI single (10 µM) dose SRB screening, A498; format: cell-based, human; conditions: 10 µM single dose, A498, Renal cancer
Procedure: as §7, §8, §9

ACHN = test: NCI single (10 µM) dose SRB screening, ACHN; format: cell-based, human; conditions: 10 µM single dose, Renal cancer
Procedure: as §7, §8, §9

UO-31 = test: NCI single (10 µM) dose SRB screening, UO-31; format: cell-based, human; conditions: 10 µM single dose, UO-31, Renal cancer
Procedure: as §7, §8, §9

PC-3 = test: NCI single (10 µM) dose SRB screening, PC-3; format: cell-based, human; conditions: 10 µM single dose, PC-3, Prostate cancer
Procedure: as §7, §8, §9

HS 578 T = test: NCI single (10 µM) dose SRB screening, HS 578 T; format: cell-based, human; conditions: 10 µM single dose, Breast cancer
Procedure: as §7, §8, §9

T1 sequence (P00915 whole entry): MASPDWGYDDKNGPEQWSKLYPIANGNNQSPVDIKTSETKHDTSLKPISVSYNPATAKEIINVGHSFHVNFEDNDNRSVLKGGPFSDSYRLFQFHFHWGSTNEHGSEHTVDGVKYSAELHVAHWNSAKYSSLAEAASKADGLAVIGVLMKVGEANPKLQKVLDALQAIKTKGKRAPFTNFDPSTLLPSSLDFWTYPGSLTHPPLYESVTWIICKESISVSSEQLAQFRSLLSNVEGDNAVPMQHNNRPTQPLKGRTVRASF

Row | Structure (SMILES) | pKi (hCA I) | Selectivity index (SI) (KI off-target CA/KI target CA) Towards hCA IX (hCA IX) | pKi (hCA IX) | GI % (CCRF-CEM) | GI % (RPMI-8226) | GI % (SR) | GI % (EKVX) | GI % (NCI-H23) | GI % (NCI-H322M) | GI % (NCI-H522) | GI % (HCT-15) | GI % (KM 12) | GI % (SF-268) | GI % (SF-539) | GI % (LOX IMVI) | GI % (MDA-MB-435) | GI % (SK-MEL-2) | GI % (UACC-257) | GI % (OVCAR-4) | GI % (IGROV1) | also measured
1 | Cc1nc(-c2cc3ccccc3oc2=O)ccc1C(=O)/C=C/c1ccccn1 [Compound 5l, 3-(6-Methyl-5-[(2E)-3-(pyridin-2-yl)prop-2-enoyl]pyridin-2-yl)-2H-chromen-2-one] | < 4.00 | >26.32 | 5.42 | 93% | 136% | 112% | – (Only GI % more than 20% are displayed.) | 44% | – (Only GI % more than 20% are displayed.) | 41% | 133% | 93% | 21% | 97% | 184% | 29% | – (Only GI % more than 20% are displayed.) | – (Only GI % more than 20% are displayed.) | – (Only GI % more than 20% are displayed.) | 93% | GI % (SK-OV-3): – (Only GI % more than 20% are displayed.); GI % (OVCAR-8): 30%; GI % (NCI/ADR-RES): 22%; GI % (786-0): 93%; GI % (A498): – (Only GI % more than 20% are displayed.); GI % (ACHN): 41%; GI % (UO-31): 41%; GI % (PC-3): 31%; GI % (HS 578 T): – (Only GI % more than 20% are displayed.)
2 | Cc1nc(-c2cc3ccccc3oc2=O)ccc1C(=O)/C=C/c1ccc(N2CCOCC2)cc1 [Compound 5g, 3-(6-Methyl-5-[(2E)-3-[4-(morpholin-4-yl)phenyl]prop-2-enoyl]pyridin-2-yl)-2H-chromen-2-one] | < 4.00 | >8.33 | 4.92 | 27% | – (Only GI % more than 20% are displayed.) | 73% | – (Only GI % more than 20% are displayed.) | – (Only GI % more than 20% are displayed.) | – (Only GI % more than 20% are displayed.) | 38% | 45% | 31% | 24% | 54% | 68% | 121% | – (Only GI % more than 20% are displayed.) | – (Only GI % more than 20% are displayed.) | 27% | – (Only GI % more than 20% are displayed.) | GI % (SK-OV-3): – (Only GI % more than 20% are displayed.); GI % (OVCAR-8): – (Only GI % more than 20% are displayed.); GI % (NCI/ADR-RES): 32%; GI % (786-0): 24%; GI % (A498): 24%; GI % (ACHN): 29%; GI % (UO-31): – (Only GI % more than 20% are displayed.); GI % (PC-3): – (Only GI % more than 20% are displayed.); GI % (HS 578 T): 40%
